Entries after “also recorded” stand apart in the source; their conditions may differ.
Assays:
[1] = tested on: large cell lung cancer line LXFL 529L; experiment: Monolayer proliferation inhibition, modified propidium iodide assay; assay type: cell-based; details: for in vitro activity of the agent alone: single agent, stated for both cell lines; for In vitro activity (Test/Control %): 4 days exposure, median of 5 experiments; for tumour effects (words): circiliol alone at 3 μg/ml
[2] = tested on: lung adenocarcinoma cell line LXFA 526L; experiment: as above; assay type: cell-based; details: for in vitro activity of the agent alone: single agent, stated for both cell lines; for In vitro activity (Test/Control %): 4 days exposure, median of 5 experiments; for tumour effects (words): circiliol alone at 3 μg/ml
[3] = LXFA 529L, 0 μg/ml circiliol, median of 2-5 experiments
[4] = LXFA 529L, +3 μg/ml circiliol, median of 2-5 experiments

SMILES: Nc1ccn([C@@H]2O[C@H](CO)[C@@H](O)C2(F)F)c(=O)n1 [gemcitabine, 2′, 2′-diflouro-2′-deoxycytidine, reference compound]
- IC50 of gemcitabine alone [1, 3]: 0.355 µg/mL
- IC70 of gemcitabine alone [1, 3]: 0.64 µg/mL
- IC50 of gemcitabine in combination with circiliol [1, 4]: 0.039 µg/mL
- IC70 of gemcitabine in combination with circiliol [1, 4]: 0.076 µg/mL
- fold increase of antitumour activity of gemcitabine (IC70 shift) ([1]; LXFA 529L, with 30 μg/ml circiliol): 19 fold
- IC50 ([1]; LXFL 529L, LXFA 529L, 0 μg/ml circiliol, median of 2-5 experiments, read-out: IC50 of gemcitabine alone): 0.36 µg/mL
- in vitro activity of the agent alone [1]: potently active
- IC70 of gemcitabine alone ([2]; LXFA 526L, 0 μg/ml circiliol, median of 2-5 experiments): 5.6 µg/mL
- IC70 of gemcitabine alone ([2]; LXFA 526L, 0 μg/ml circiliol, median of 2-5 experiments, listed as Gemcitabine): 5.7 µg/mL
- IC50 ([2]; LXFA 526L, 0 μg/ml circiliol, median of 2-5 experiments, read-out: IC50 of gemcitabine alone): 0.63 µg/mL
- IC70 of gemcitabine in combination with circiliol ([2]; LXFA 526L, +3 μg/ml circiliol, median of 2-5 experiments): 0.87 µg/mL
- IC70 of gemcitabine in combination with circiliol ([2]; LXFA 526L, +30 μg/ml circiliol, median of 2-5 experiments): 0.58 µg/mL
- fold increase of antitumour activity of gemcitabine (IC70 shift) ([2]; LXFA 526L, with 30 μg/ml circiliol): 10 fold
- in vitro activity of the agent alone [2]: potently active

SMILES: COc1cc2oc(-c3ccc(O)c(O)c3)cc(=O)c2c(O)c1OC [Circiliol, 6,7-dimethoxy-5,3′4′-trihydroxyflavone]
- In vitro activity (Test/Control %) ([1]; LXFA 529L, circiliol 3 μg/ml): 102%
- In vitro activity (Test/Control %) ([1]; LXFA 529L, circiliol 30 μg/ml): 49%
- In vitro activity (Test/Control %) ([1]; LXFA 529L, circiliol 300 μg/ml): 39%
- tumour effects (words) [1]: inactive alone
- tumour effects (words) ([1]; listed as circiliol): no tumour effects
- inhibition of tumour growth in vitro ([1]; circiliol alone at 30 μg/ml): 50%
- antitumour activity in vitro ([1]; circiliol alone at <3 μg/ml): no antitumour activity
- in vitro activity of the agent alone [1]: only moderately active; also recorded: low activity
- In vitro activity (Test/Control %) ([2]; LXFA 526L, circiliol 3 μg/ml): 93%
- In vitro activity (Test/Control %) ([2]; LXFA 526L, circiliol 30 μg/ml): 53%
- In vitro activity (Test/Control %) ([2]; LXFA 526L, circiliol 300 μg/ml): 55%
- tumour effects (words) [2]: inactive alone
- tumour effects (words) ([2]; listed as circiliol): no tumour effects
- inhibition of tumour growth in vitro ([2]; circiliol alone at 30 μg/ml): 50%
- antitumour activity in vitro ([2]; circiliol alone at <3 μg/ml): no antitumour activity
- in vitro activity of the agent alone [2]: only moderately active; also recorded: low activity

Reference: patent publication US20020169140A1, “Combination therapy for reduction of toxicity of chemotherapeutic agents” (priority 2001, published 2002)
